# Measurements from patent US7358250B2, “Pyrrolo[2,3-d]pyrimidines that modulate ACK1 activity” (Amgen Inc., priority 2004, dated 2008).
# pIC50, pKi: −log10 of the molar value.
# Experiments:
# [1] = target: T1, LCK (Homo sapiens, UniProt P06239); assay: LCK-Homogeneous Time Resolved Fluorescent (HTRF) Kinase Assay; format: biochemical; settings: LCK KD GST (225-509)
# T1 construct: 15 μL of LCK KD GST (225-509) for a final volume of 40 μL; GST
# Experimental: The LCK HTRF assay begins with LCK in the presence of ATP phosphorylating the biotinylated peptide Gastrin. The reaction incubates for 90 min. To quench the assay detection reagents are added which both stop the reaction by diluting out the enzyme and chelating the metals due to the presence of EDTA. Once the detection reagents are added the assay incubates for 30 min to allow for equilibration of the detection reagents.
# The final concentration of gastrin is 1.2 μM. The final concentration of ATP is 0.5 μM (Km app=[…]) and the final concentration of LCK is […]. Buffer conditions are as follows: 50 mM HEPES pH 7.5, 50 mM NaCl, 20 mM MgCl, 5 mM MnCl, 2 mM DTT, 0.05% BSA.
# The assay is quenched and stopped with 160 μL of detection reagent. Detection reagents are as follows: Buffer made of 50 mM Tris, pH 7.5, 100 mM NaCl, 3 mM EDTA, 0.05% BSA, 0.1% Tween20. Added to this buffer prior to reading is Steptavidin allophycocyanin (SA-APC) at a final conc in the assay of 0.0004 mg/mL, and europilated anti-phosphotyrosine Ab (Eu-anti-PY) at a final conc of 0.025 nM.
# The assay plate is read in either a Discovery or a RubyStar. The eu-anti-PY is excited at 320 nm and emits at 615 nm to excite the SA-APC which in turn emits at 655 nm. The ratio of SA-APC at 655 nm (excited due to close proximity to the Eu-anti-PY because of phosphorylation of the peptide) to free Eu-anti-PY at 615 nm will give substrate phosphorylation.
# [2] = target: T2, ACK1 (Homo sapiens, UniProt Q07912); assay: ACK1 Enzymatic Assay; format: biochemical; settings: 5 μM ATP, ELISA phosphotyrosine readout
# T2 construct: a fusion of an N-terminal (His)6 Tag with amino acids 117 to 489 of ACK1; (His)6 (N); made in house; host or cells: baculovirus infected Hi-5 insect cells
# T2 sequence (Q07912 117-489): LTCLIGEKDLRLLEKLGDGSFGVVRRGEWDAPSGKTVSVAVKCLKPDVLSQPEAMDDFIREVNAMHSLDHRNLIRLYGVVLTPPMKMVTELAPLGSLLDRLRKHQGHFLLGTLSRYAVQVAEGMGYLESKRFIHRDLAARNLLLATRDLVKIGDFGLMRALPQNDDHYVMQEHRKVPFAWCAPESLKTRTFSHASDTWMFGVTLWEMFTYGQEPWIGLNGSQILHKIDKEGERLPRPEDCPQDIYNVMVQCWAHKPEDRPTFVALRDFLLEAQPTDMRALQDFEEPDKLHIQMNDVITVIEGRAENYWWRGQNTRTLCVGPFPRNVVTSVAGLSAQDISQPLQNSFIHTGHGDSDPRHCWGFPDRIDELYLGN
# Experimental: IC50 values of inventive compounds may be assessed as follows. […] The substrate of for the reaction is ACK1 itself (autophosphorylation) and poly-Glutamic acid-Tyrosine (PGT (4:1), Sigma catalog #PO275). The PGT is coated to Nunc 96 well plates at 80 μg/mL overnight at 4° C. […] Test compounds are added in 10 μL DMSO, and the reaction is started by addition of 10 μL kinase in assay buffer. The reaction proceeds 2 h at room temperature. Next the plates are washed four times, and the level of tyrosine phosphorylation in a given well is quantified by standard ELISA assay utilizing a phosphotyrosine antibody (PY20, Pierce).
# [3] = tested on: C8 cells; assay: ACK1 Cell Based Assay, test (C8) cell line; settings: 0.125% FCS, 20 to 24 h; for pIC50: cell viability (Cytotox One kit)
# Experimental: (§1) The ACK1 cell based assay is designed to find inhibitors of ACK1 kinase activity which would be prime candidates for the development of anticancer drugs. […] This dependency was confirmed utilizing ACK1 specific siRNAs.
# (§2) For this assay, test (C8) and control (HeLa) cell lines are seeded in 96 well tissue culture plates (BD Falcon) at a density of 2 to 4×10^4 in DMEM/F12 (C8) or DMEM (HeLa) with 0.125% FCS in the presence of ACK1 inhibitors (final DMSO concentration is 0.5%, all tissue culture media are from Cellgro). After 20 to 24 h incubation at 37° C. and 5% CO2, cell viability is determined using the Cytotox One kit (Promega) according to the manufacturer's instructions.
# [4] = tested on: HeLa cells; assay: ACK1 Cell Based Assay, control (HeLa) cell line; settings: 0.125% FCS, 20 to 24 h
# Experimental: as §1, §2
# T1 sequence (P06239 225-509): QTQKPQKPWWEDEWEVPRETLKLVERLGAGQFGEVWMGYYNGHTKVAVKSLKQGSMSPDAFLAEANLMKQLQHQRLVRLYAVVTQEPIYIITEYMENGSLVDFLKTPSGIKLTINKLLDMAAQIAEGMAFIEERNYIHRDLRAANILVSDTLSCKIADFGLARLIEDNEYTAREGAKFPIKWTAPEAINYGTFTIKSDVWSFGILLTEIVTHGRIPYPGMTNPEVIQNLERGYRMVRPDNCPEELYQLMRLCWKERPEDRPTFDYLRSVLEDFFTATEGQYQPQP
smiles,measurement,setting,value
"CCOC(=O)CN(CC(=O)OCC)S(=O)(=O)c1ccc(-c2[nH]c3ncnc(NCC4CCCO4)c3c2-c2ccccc2)cc1 (centres unmarked) [Example 14, [Ethoxycarbonylmethyl-(4-{5-phenyl-4-[(tetrahydrofuran-2-ylmethyl)-amino]-7H-pyrrolo[2,3-d]pyrimidin-6-yl}-benzenesulfonyl)-amino]-acetic acid ethyl ester]",pKi,[1],7.00 to 8.00
same,pKi,[2],> 8.00
same,pIC50,[3],< 7.00
"NS(=O)(=O)c1ccc(-c2[nH]c3ncnc(NC[C@@H]4CCCO4)c3c2-c2ccccc2)cc1 [Example 15, 4-{5-Phenyl-4-[(tetrahydrofuran-2-ylmethyl)-amino]-7H-pyrrolo[2,3-d]pyrimidin-6-yl}-benzenesulfonamide]",pKi,[1],7.00 to 8.00
same,pKi,[2],> 8.00
same,pIC50,[3],< 7.00
"O=S(=O)(NCC(O)CO)c1ccc(-c2[nH]c3ncnc(NC[C@@H]4CCCO4)c3c2-c2ccccc2)cc1 (some centres unmarked) [Example 16, N-(2,3-Dihydroxy-propyl)-4-{5-phenyl-4-[(tetrahydrofuran-2-ylmethyl)-amino]-7H-pyrrolo[2,3-d]pyrimidin-6-yl}-benzenesulfonamide]",pKi,[1],> 8.00
same,pKi,[2],> 8.00
same,pIC50,[3],< 7.00
O=C(O)CNS(=O)(=O)c1ccc(-c2[nH]c3ncnc(NC[C@@H]4CCCO4)c3c2-c2ccccc2)cc1 [Example 17],pKi,[1],7.00 to 8.00
same,pKi,[2],> 8.00
same,pIC50,[3],< 7.00
"O=S(=O)(NCCO)c1ccc(-c2[nH]c3ncnc(NC[C@@H]4CCCO4)c3c2-c2ccccc2)cc1 [Example 18, N-(2-Hydroxy-ethyl)-4-{5-phenyl-4-[(tetrahydro-furan-2-ylmethyl)-amino]-7H-pyrrolo[2,3-d]pyrimidin-6-yl}-benzenesulfonamide]",pKi,[1],> 8.00
same,pKi,[2],> 8.00
same,pIC50,[3],< 7.00
"O=S(=O)(c1ccc(-c2[nH]c3ncnc(NC[C@@H]4CCCO4)c3c2-c2ccccc2)cc1)N(CCO)CCO [Example 19, N,N-Bis-(2-hydroxyethyl)-4-{5-phenyl-4-[(tetrahydro-furan-2-ylmethyl)-amino]-7H-pyrrolo[2,3-d]pyrimidin-6-yl}-benzenesulfonamide]",pKi,[1],> 8.00
same,pKi,[2],> 8.00
same,pIC50,[3],< 7.00
"CN(C)CCOc1ccc(-c2[nH]c3ncnc(NC[C@@H]4CCCO4)c3c2-c2ccccc2)cc1 [Example 20, {6-[4-(2-Dimethylamino-ethoxy)-phenyl]-5-phenyl-7H-pyrrolo[2,3-d]pyrimidin-4-yl}-(tetrahydro-furan-2-ylmethyl)-amine]",cytotoxic effect on HeLa cells,[4],no cytotoxic effect
same,pKi,[1],> 8.00
same,pKi,[2],> 8.00
same,cytotoxicity to C8 cells,[3],cytotoxic
same,pIC50,[3],7.00 to 8.00
"c1ccc(-c2c(-c3ccc(OCCN4CCOCC4)cc3)[nH]c3ncnc(NCC4CCCO4)c23)cc1 (centres unmarked) [Example 21, {6-[4-(2-Morpholin-4-yl-ethoxy)-phenyl]-5-phenyl-7H-pyrrolo[2,3-d]pyrimidin-4-yl}-(tetrahydro-furan-2-ylmethyl)-amine]",pKi,[1],> 8.00
same,pKi,[2],> 8.00
same,pIC50,[3],7.00 to 8.00
"c1ccc(-c2c(-c3ccc(OCCN4CCCC4)cc3)[nH]c3ncnc(NCC4CCCO4)c23)cc1 (centres unmarked) [Example 22, {5-Phenyl-6-[4-(2-pyrrolidin-1-yl-ethoxy)-phenyl]-7H-pyrrolo[2,3-d]pyrimidin-4-yl}-(tetrahydrofuran-2-ylmethyl)-amine]",pKi,[1],> 8.00
same,pKi,[2],> 8.00
same,pIC50,[3],7.00 to 8.00
"O=C1CCCN1CCOc1ccc(-c2[nH]c3ncnc(NCC4CCCO4)c3c2-c2ccccc2)cc1 (centres unmarked) [Example 23, 1-[2-(4-{5-Phenyl-4-[(tetrahydrofuran-2-ylmethyl)-amino]-7H-pyrrolo[2,3-d]pyrimidin-6-yl}-phenoxy)-ethyl]-pyrrolidin-2-one]",pKi,[1],> 8.00
same,pKi,[2],> 8.00
same,pIC50,[3],7.00 to 8.00
"CN1CCCC1CCOc1ccc(-c2[nH]c3ncnc(NCC4CCCO4)c3c2-c2ccccc2)cc1 (centres unmarked) [Example 24, (6-{4-[2-(1-Methyl-pyrrolidin-2-yl)-ethoxy]-phenyl}-5-phenyl-7H-pyrrolo[2,3-d]pyrimidin-4-yl)-(tetrahydrofuran-2-ylmethyl)-amine]",pKi,[1],7.00 to 8.00
same,pKi,[2],7.00 to 8.00
same,pIC50,[3],< 7.00
"N#CCOc1ccc(-c2[nH]c3ncnc(NC[C@@H]4CCCO4)c3c2-c2ccccc2)cc1 [Example 25, (4-{5-Phenyl-4-[(tetrahydrofuran-2-ylmethyl)-amino]-7H-pyrrolo[2,3-d]pyrimidin-6-yl}-phenoxy)-acetonitrile]",pKi,[1],7.00 to 8.00
same,pKi,[2],> 8.00
same,pIC50,[3],7.00 to 8.00
"CNC(=O)c1ccc(-c2[nH]c3ncnc(NC[C@@H]4CCCO4)c3c2-c2ccccc2)cc1 [Example 26, N-Methyl-4-{5-phenyl-4-[(tetrahydrofuran-2-ylmethyl)-amino]-7H-pyrrolo[2,3-d]pyrimidin-6-yl}-benzamide]",pKi,[1],> 8.00
same,pKi,[2],> 8.00
same,pIC50,[3],7.00 to 8.00
"CN(C)C(=O)c1ccc(-c2[nH]c3ncnc(NCC4CCCO4)c3c2-c2ccccc2)cc1 (centres unmarked) [Example 27, N,N-Dimethyl-4-{5-phenyl-4-[(tetrahydrofuran-2-ylmethyl)-amino]-7H-pyrrolo[2,3-d]pyrimidin-6-yl}-benzamide]",pKi,[1],> 8.00
same,pKi,[2],> 8.00
same,pIC50,[3],7.00 to 8.00
"O=C(c1ccc(-c2[nH]c3ncnc(NCC4CCCO4)c3c2-c2ccccc2)cc1)N1CCOCC1 (centres unmarked) [Example 28, Morpholin-4-yl-(4-{5-phenyl-4-[(tetrahydrofuran-2-ylmethyl)-amino]-7H-pyrrolo[2,3-d]pyrimidin-6-yl}-phenyl)-methanone]",pKi,[1],< 7.00
same,pKi,[2],> 8.00
same,pIC50,[3],7.00 to 8.00
"O=C(NC1CC1)c1ccc(-c2[nH]c3ncnc(NCC4CCCO4)c3c2-c2ccccc2)cc1 (centres unmarked) [Example 29, N-Cyclopropyl-4-{5-phenyl-4-[(tetrahydrofuran-2-ylmethyl)-amino]-7H-pyrrolo[2,3-d]pyrimidin-6-yl}-benzamide]",pKi,[1],> 8.00
same,pKi,[2],> 8.00
same,pIC50,[3],7.00 to 8.00
"COCCNC(=O)c1ccc(-c2[nH]c3ncnc(NCC4CCCO4)c3c2-c2ccccc2)cc1 (centres unmarked) [Example 30, N-(2-Methoxyethyl)-4-{5-phenyl-4-[(tetrahydrofuran-2-ylmethyl)-amino]-7H-pyrrolo[2,3-d]pyrimidin-6-yl}-benzamide]",pKi,[1],> 8.00
same,pKi,[2],> 8.00
same,pIC50,[3],7.00 to 8.00
"O=C(NCCN1CCOCC1)c1ccc(-c2[nH]c3ncnc(NCC4CCCO4)c3c2-c2ccccc2)cc1 (centres unmarked) [Example 31, N-(2-Morpholin-4-yl-ethyl)-4-{5-phenyl-4-[(tetrahydrofuran-2-ylmethyl)-amino]-7H-pyrrolo[2,3-d]pyrimidin-6-yl}-benzamide]",pKi,[1],> 8.00
same,pKi,[2],> 8.00
same,pIC50,[3],< 7.00
"CN(C)CCNC(=O)c1ccc(-c2[nH]c3ncnc(NCC4CCCO4)c3c2-c2ccccc2)cc1 (centres unmarked) [Example 32, N-(2-Dimethylamino-ethyl)-4-{5-phenyl-4-[(tetrahydrofuran-2-ylmethyl)-amino]-7H-pyrrolo[2,3-d]pyrimidin-6-yl}-benzamide]",pKi,[1],> 8.00
same,pKi,[2],> 8.00
same,pIC50,[3],7.00 to 8.00
"CN(C)CCOc1ccc(-c2[nH]c3ncnc(NCC4CCC4)c3c2-c2ccccc2)cc1 [Example 34, Cyclobutylmethyl-{6-[4-(2-dimethylamino-ethoxy)-phenyl]-5-phenyl-7H-pyrrolo[2,3-d]pyrimidin-4-yl}-amine]",pKi,[1],> 8.00
same,pKi,[2],7.00 to 8.00
same,pIC50,[3],< 7.00
